Reference: US20020044971A1, “Dissolution rate of poorly soluble drugs” (priority 2000, published 2002)
Converted amounts (≈) assume the structure as drawn. Like-named read-outs stand apart in the source and are kept apart here.

Experiments:
[1] = aqueous solubility, cited from earlier work
[2] = Volume of fluid required to achieve complete dissolution of the dose; type: physicochemical; details: for the dose listed in Table 1
Description: The volume requirement of the boundary layer is a function of the solubilizing effect of the surfactant. This volume can be calculated by dividing the mass of the particle by the solubility of the drug.

Structure (SMILES) | Solubility [1] [µg/mL] | YDISSOLUTION (volume of fluid required to achieve complete dissolution) [2] [L] | Solubility ([1]; measured at 39° C.) [µg/mL]
NC(=O)N1c2ccccc2C=Cc2ccccc21 [Carbamazepine] | 400 (≈ 1690 µM) | 4.3 | 
O=C(O)c1cc(-c2ccc(F)cc2F)ccc1O [Diflumisal] | 10 (≈ 40 µM) | 3.6 | 
C[C@H]1O[C@@H](O[C@H]2[C@@H](O)C[C@H](O[C@H]3[C@@H](O)C[C@H](O[C@H]4CC[C@@]5(C)[C@H](CC[C@@H]6[C@@H]5C[C@@H](O)[C@]5(C)[C@@H](C7=CC(=O)OC7)CC[C@]65O)C4)O[C@@H]3C)O[C@@H]2C)C[C@H](O)[C@@H]1O [Digoxin] |  | 0.021 | 
CC(C)(C)NC(=O)[C@H]1CC[C@H]2[C@@H]3CC[C@H]4NC(=O)C=C[C@]4(C)[C@H]3CC[C@]12C [Finasteride] | 1 (≈ 2.68 µM) | 5.0 | 
OC(Cn1cncn1)(Cn1cncn1)c1ccc(F)cc1F [Fluconazole] | 100 (≈ 327 µM) | 2.0 | 
COC1=CC(=O)C[C@@H](C)[C@]12Oc1c(Cl)c(OC)cc(OC)c1C2=O [Griseofulvin] |  | 29.4 | 17 (≈ 48.2 µM)
CCC(C)n1ncn(-c2ccc(N3CCN(c4ccc(OCC5COC(Cn6cncn6)(c6ccc(Cl)cc6Cl)O5)cc4)CC3)cc2)c1=O (stereo not drawn) [Itraconozole] | 1 (≈ 1.42 µM) | 9.9 | 
CN1C(C(=O)Nc2ccccn2)=C(O)c2ccccc2S1(=O)=O [Piroxicam] | 10 (≈ 30.2 µM) | 8.2 | 
